Experimental data published in patent publication US20080113938A1, “ACCELERATOR FOR MINERAL ABSORPTION AND USE THEREOF” (KABUSHIKI KAISHA HAYASHIBARA SEIBUTSU KAGAKU KENKYUJO, priority 2003, published 2008).
Marks after values point to notes of the source that are not given here.

System: absorption of calcium, magnesium, phosphorus and iron in alimentary canal
Test: Mineral amounts and absorption percentages in alimentary canal contents and excrement of rats
Type: in vivo, Wister rats
Text: Forty of Wister rats weighing 110 to 120 g (five-weeks aged male, commercialized by Charles River Japan Inc., Yokohama, Japan) were bred with a feed containing ingredients (%) shown in Table 1 for one week in order to be familiarized. The familiarized rats were randomly divided into four groups with ten rats each. Each group was experimentally bred for eight weeks with either a feed without cyclic tetrasaccharide shown in Table 1 (hereinafter, it is called as “basic feed”), or another feed of basic feed supplemented with 1%, 2% or 5% on a dry solid basis, of cyclic tetrasaccharide in a crystalline anhydrous powder form with a purity of 99.5%, prepared in the following Example A-3. These basic feed and three kinds of feeds with cyclic tetrasaccharide were prepared to contain 44.75% of the total amount of cyclic tetrasaccharide and corn starch in each feed. From one week before the end of the breeding test, in order to determine the metabolism of calcium, magnesium, iron, sodium, potassium and phosphorus (hereinafter, may be called “minerals” in all), rats in the all groups were fed with the four types of feeds supplemented with 0.5% of chromium oxide as a non-absorbed marker for the minerals. The rats were bred at 25° C. in a manner of freely allowing to take feeds and water under a condition of 12 hours regular interval between of light and shade. After completion of experimental breeding, all rats were individually weighed to calculate the average of weight and further calculate the rate of increased weight for each group.
Two days before the end of the breeding test, rats were placed into a gauge for measuring metabolism to collect their excrement in two days. The resulting excrement was subjected to the measurement of the contents of cyclic tetrasaccharide, each mineral, and chromium. After the breeding test, the rats were anatomized in an anesthetized condition to take out their alimentary canals including jejunum, intestinum ileum, appendix and colon/rectum. After the resulting alimentary canals were weighed, their contents were also weighed and subjected to the measurement of the amount of cyclic tetrasaccharide, minerals and chromium. The rats, which had been taken out their alimentary canals, were dislocated at their cervical vertebrae and taken out their femurs from right legs. The resulting femurs were subjected to the measurement of the amount of ashes, calcium, magnesium and phosphorus. The following(s) explain the methods of quantitative analysis of cyclic tetrasaccharide and the methods of measurement of minerals and chromium.
Two grams of a feed was preciously weighed in a porcelain crucible, heated to carbonize, and heated at 600° C. to incinerate. After weighed, the resulting test samples were admixed with hydrochloric acid in a precious analysis grade (concentration of 20%, commercialized by Wako Pure Chemicals, Co., Ltd., Osaka, Japan) to give a final concentration of 1%. They were subjected to atomic absorption spectrometry (“Zeeman5100™”, commercialized by PerkinElmer); in the case of measurement of chromium, they were subjected to a flameless type one. In the case of measurement of phosphorus, they were subjected to usual molybdenum blue absorptiometry. On the other hand, 0.1 g of each of the contents of jejunum, intestinum ileum, appendix, colon/rectum, and excrement was subjected to wet-type incineration to prepare test samples similarly as in the above case of feed, and the test samples were quantified. The right femurs taken out from the anatomized rats were dried at 105° C. for 15 hours and measured as a dry weight. The resulting dried femurs were precisely weighed in a porcelain crucible, and incinerated similarly as in the case of the feed. The resultants were weighed and quantified for calcium, magnesium and phosphorus.

[1] = feed supplemented with 1% cyclic tetrasaccharide
[2] = feed supplemented with 2% cyclic tetrasaccharide
[3] = feed supplemented with 5% cyclic tetrasaccharide

OC[C@H]1O[C@@H]2OC[C@H]3O[C@H](O[C@@H]4[C@@H](O)[C@@H](OC[C@H]5O[C@H](O[C@H]([C@H]2O)[C@@H]1O)[C@H](O)[C@@H](O)[C@@H]5O)O[C@H](CO)[C@H]4O)[C@H](O)[C@@H](O)[C@@H]3O [cyclic tetrasaccharide, cyclo{>6)-α-D-glucopyranosyl-(1>3)-α-D-glucopyranosyl-(1>6)-α-D-glucopyranosyl-(1>3)-α-D-glucopyranosyl-(1>}]
absorption rates of calcium, magnesium, phosphorus and iron in intestinum ileum and lower alimentary canal (against basic feed, 1%, 2%, 5% feeds): significantly increased in a dose-dependent manner
Absorption percentage of calcium, appendix [1]: (83) %
Absorption percentage of calcium, colon/rectum [1]: (86) %
Absorption percentage of calcium, excrement [1]: (88) %
Absorption percentage of calcium, intestinum ileum [1]: (79) %
Absorption percentage of iron, appendix [1]: (74) %
Absorption percentage of iron, colon/rectum [1]: (80) %
Absorption percentage of iron, excrement [1]: (85) %
Absorption percentage of iron, intestinum ileum [1]: (67) %
Absorption percentage of magnesium, appendix [1]: (84) %
Absorption percentage of magnesium, colon/rectum [1]: (86) %
Absorption percentage of magnesium, excrement [1]: (88) %
Absorption percentage of magnesium, intestinum ileum [1]: (80) %
Absorption percentage of phosphorus, appendix [1]: (88) %
Absorption percentage of phosphorus, colon/rectum [1]: (92) %
Absorption percentage of phosphorus, excrement [1]: (95) %
Absorption percentage of phosphorus, intestinum ileum [1]: (84) %
Amount of Phosphorus, content of appendix [1]: 5.39 * mg/g
Amount of Phosphorus, content of colon/rectum [1]: 5.18 * mg/g
Amount of Phosphorus, content of intestinum ileum [1]: 3.45 * mg/g
Amount of Phosphorus, excrement [1]: 17.74 * mg/g
Amount of calcium, content of appendix [1]: 10.56 * mg/g
Amount of calcium, content of colon/rectum [1]: 9.83 * mg/g
Amount of calcium, content of intestinum ileum [1]: 6.02 * mg/g
Amount of calcium, excrement [1]: 54.29 * mg/g
Amount of iron, content of appendix [1]: 0.16 * mg/g
Amount of iron, content of colon/rectum [1]: 0.14 * mg/g
Amount of iron, content of intestinum ileum [1]: 0.10 * mg/g
Amount of iron, excrement [1]: 0.71 * mg/g
Amount of magnesium, content of appendix [1]: 2.24 * mg/g
Amount of magnesium, content of colon/rectum [1]: 2.17 * mg/g
Amount of magnesium, content of intestinum ileum [1]: 1.30 * mg/g
Amount of magnesium, excrement [1]: 12.06 * mg/g
Absorption percentage of calcium, appendix [2]: (88) %
Absorption percentage of calcium, colon/rectum [2]: (90) %
Absorption percentage of calcium, excrement [2]: (92) %
Absorption percentage of calcium, intestinum ileum [2]: (84) %
Absorption percentage of iron, appendix [2]: (77) %
Absorption percentage of iron, colon/rectum [2]: (83) %
Absorption percentage of iron, excrement [2]: (88) %
Absorption percentage of iron, intestinum ileum [2]: (67) %
Absorption percentage of magnesium, appendix [2]: (86) %
Absorption percentage of magnesium, colon/rectum [2]: (88) %
Absorption percentage of magnesium, excrement [2]: (90) %
Absorption percentage of magnesium, intestinum ileum [2]: (80) %
Absorption percentage of phosphorus, appendix [2]: (92) %
Absorption percentage of phosphorus, colon/rectum [2]: (94) %
Absorption percentage of phosphorus, excrement [2]: (97) %
Absorption percentage of phosphorus, intestinum ileum [2]: (87) %
Amount of Phosphorus, content of appendix [2]: 5.35 * mg/g
Amount of Phosphorus, content of colon/rectum [2]: 4.10 * mg/g
Amount of Phosphorus, content of intestinum ileum [2]: 4.17 * mg/g
Amount of Phosphorus, excrement [2]: 10.27 * mg/g
Amount of calcium, content of appendix [2]: 8.98 * mg/g
Amount of calcium, content of colon/rectum [2]: 7.45 * mg/g
Amount of calcium, content of intestinum ileum [2]: 5.61 * mg/g
Amount of calcium, excrement [2]: 28.62 * mg/g
Amount of iron, content of appendix [2]: 0.18 * mg/g
Amount of iron, content of colon/rectum [2]: 0.14 * mg/g
Amount of iron, content of intestinum ileum [2]: 0.12 * mg/g
Amount of iron, excrement [2]: 0.49 * mg/g
Amount of magnesium, content of appendix [2]: 2.40 * mg/g
Amount of magnesium, content of colon/rectum [2]: 2.09 * mg/g
Amount of magnesium, content of intestinum ileum [2]: 1.61 * mg/g
Amount of magnesium, excrement [2]: 9.21 * mg/g
Absorption percentage of calcium, appendix [3]: (93) %
Absorption percentage of calcium, colon/rectum [3]: (94) %
Absorption percentage of calcium, excrement [3]: (94) %
Absorption percentage of calcium, intestinum ileum [3]: (89) %
Absorption percentage of iron, appendix [3]: (78) %
Absorption percentage of iron, colon/rectum [3]: (84) %
Absorption percentage of iron, excrement [3]: (89) %
Absorption percentage of iron, intestinum ileum [3]: (69) %
Absorption percentage of magnesium, appendix [3]: (88) %
Absorption percentage of magnesium, colon/rectum [3]: (91) %
Absorption percentage of magnesium, excrement [3]: (93) %
Absorption percentage of magnesium, intestinum ileum [3]: (84) %
Absorption percentage of phosphorus, appendix [3]: (93) %
Absorption percentage of phosphorus, colon/rectum [3]: (94) %
Absorption percentage of phosphorus, excrement [3]: (97) %
Absorption percentage of phosphorus, intestinum ileum [3]: (87) %
Amount of Phosphorus, content of appendix [3]: 3.43 * mg/g
Amount of Phosphorus, content of colon/rectum [3]: 3.06 * mg/g
Amount of Phosphorus, content of intestinum ileum [3]: 2.84 * mg/g
Amount of Phosphorus, excrement [3]: 8.98 * mg/g
Amount of calcium, content of appendix [3]: 4.99 * mg/g
Amount of calcium, content of colon/rectum [3]: 5.00 * mg/g
Amount of calcium, content of intestinum ileum [3]: 3.48 * mg/g
Amount of calcium, excrement [3]: 26.47 * mg/g
Amount of iron, content of appendix [3]: 0.19 * mg/g
Amount of iron, content of colon/rectum [3]: 0.13 * mg/g
Amount of iron, content of intestinum ileum [3]: 0.10 * mg/g
Amount of iron, excrement [3]: 0.66 * mg/g
Amount of magnesium, content of appendix [3]: 2.03 * mg/g
Amount of magnesium, content of colon/rectum [3]: 1.55 * mg/g
Amount of magnesium, content of intestinum ileum [3]: 1.04 * mg/g
Amount of magnesium, excrement [3]: 8.37 * mg/g
